Test results published in US20260176253A1 (priority 2021, published 2026).

Columns and labels:
[1] = biological target: 5-HT2Cedited (accession number AAF35842.1) (Homo sapiens, UniProt P28335, I156V/I160V/N158S); assay: biochemical; assay type: binding
[2] = biological target: human recombinant 5-HT2Cedited receptor (Homo sapiens, UniProt P28335, I156V/I160V/N158S); assay: cell-based
Chain of human recombinant 5-HT2Cedited receptor (P28335 33-458 I156V/N158S/I160V limits assumed): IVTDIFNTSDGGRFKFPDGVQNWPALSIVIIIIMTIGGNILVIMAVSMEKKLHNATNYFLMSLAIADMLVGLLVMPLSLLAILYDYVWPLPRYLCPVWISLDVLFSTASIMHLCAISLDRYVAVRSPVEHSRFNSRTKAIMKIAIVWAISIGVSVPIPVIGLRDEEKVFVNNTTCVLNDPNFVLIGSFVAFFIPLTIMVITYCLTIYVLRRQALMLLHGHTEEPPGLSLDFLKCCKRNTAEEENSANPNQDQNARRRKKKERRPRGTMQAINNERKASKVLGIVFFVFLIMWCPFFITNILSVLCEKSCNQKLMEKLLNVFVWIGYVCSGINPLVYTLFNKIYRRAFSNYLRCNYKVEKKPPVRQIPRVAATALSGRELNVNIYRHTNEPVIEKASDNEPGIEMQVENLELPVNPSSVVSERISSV

Chain of 5-HT2Cedited (accession number AAF35842.1) (P28335 whole entry I156V/N158S/I160V, looked up): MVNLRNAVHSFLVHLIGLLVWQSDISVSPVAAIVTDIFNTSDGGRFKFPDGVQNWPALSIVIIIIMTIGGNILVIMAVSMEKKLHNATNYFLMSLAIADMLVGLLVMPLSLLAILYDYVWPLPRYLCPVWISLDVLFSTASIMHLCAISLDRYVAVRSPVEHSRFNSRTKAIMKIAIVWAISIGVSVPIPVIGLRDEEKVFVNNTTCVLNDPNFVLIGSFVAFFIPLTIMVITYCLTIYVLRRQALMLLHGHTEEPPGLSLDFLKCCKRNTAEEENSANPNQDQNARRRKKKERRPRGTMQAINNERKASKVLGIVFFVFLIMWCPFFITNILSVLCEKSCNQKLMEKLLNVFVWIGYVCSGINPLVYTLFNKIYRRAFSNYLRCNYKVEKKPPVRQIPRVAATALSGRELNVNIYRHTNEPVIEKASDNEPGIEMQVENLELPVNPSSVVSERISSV

**Q.** Which IC50 [1] does the source give for COc1ccc2c3c([nH]c2c1)CCN1CCCC1C3 (stereo not drawn) [Compound 1, 9-methoxy-1,2,3,5,6,7,12,12a-octahydropyrrolo[1′,2′:1,7]azepino[4,5-b]indole] here?
**A.** 1000 to 10000 nM

**Q.** And the EC50 [2]?
**A.** > 10000 nM

**Q.** What does the source list for COc1ccc2c3c([nH]c2c1)CC1CCCN1CC3 (stereo not drawn) [Compound 2, 9-methoxy-1,2,3,5,6,11,12,12a-octahydropyrrolo[1′,2′:1,2]azepino[4,5-b]indole]?
**A.** IC50 [1]: 1000 to 10000 nM; EC50 [2]: 1000 to 10000 nM

**Q.** Cn1c2c(c3ccccc31)CCN1CCCC1C2 (stereo not drawn) [Compound 3, 11-methyl-1,2,3,5,6,11,12,12a-octahydropyrrolo[1′,2′:1,2]azepino[4,5-b]indole] was tested. Which IC50 [1] did it give?
**A.** 101 to 1000 nM

**Q.** What about the EC50 [2] of the same compound?
**A.** 101 to 1000 nM

**Q.** For c1ccc2c3c([nH]c2c1)CC1CCCN1CC3 (stereo not drawn) [Compound 4, 1,2,3,5,6,11,12,12a-octahydropyrrolo[1′,2′;1,2]azepino[4,5-b]indole], which IC50 [1] is on record?
**A.** 101 to 1000 nM

**Q.** And the EC50 [2]?
**A.** 101 to 1000 nM

**Q.** With COc1cccc2[nH]c3c(c12)CC1CCCN1CC3 (stereo not drawn) [Compound 5, 11-methoxy-1,2,3,5,6,7,12,12a-octahydropyrrolo[1′,2′:1,7]azepino[4,5-b]indole] as the compound, how does the IC50 [1] read?
**A.** 101 to 1000 nM

**Q.** And the EC50 [2]?
**A.** 1000 to 10000 nM

**Q.** Which results are given for Cn1c2c(c3ccccc31)CC1CCCN1CC2 (stereo not drawn) [Compound 6, 7-methyl-1,2,3,5,6,7,12,12a-octahydropyrrolo[1′,2′:1,7]azepino[4,5-b]indole]?
**A.** IC50 [1]: 101 to 1000 nM; EC50 [2]: 101 to 1000 nM

**Q.** Which results are given for c1ccc2c3c([nH]c2c1)CCN1CCCC1C3 (stereo not drawn) [Compound 7, 1,2,3,5,6,7,12,12a-octahydropyrrolo[1′,2′:1,7]azepino[4,5-b]indole]?
**A.** IC50 [1]: 101 to 1000 nM; EC50 [2]: 101 to 1000 nM

**Q.** Which IC50 [1] does the source give for FC(F)(F)c1ccc2c3c([nH]c2c1)CC1CCCN1CC3 (stereo not drawn) [Compound 12, 9-(trifluoromethyl)-1,2,3,5,6,11,12,12a-octahydropyrrolo[1′,2′:1,2]azepino[4,5-b]indole] here?
**A.** 1000 to 10000 nM

**Q.** And the EC50 [2]?
**A.** > 10000 nM

**Q.** How did the IC50 [1] turn out when FC(F)(F)Oc1ccc2c3c([nH]c2c1)CC1CCCN1CC3 (stereo not drawn) [Compound 13, 9-(trifluoromethoxy)-1,2,3,5,6,11,12,12a-octahydropyrrolo[1′,2′;1,2]azepino[4,5-b]indole] was run?
**A.** 1000 to 10000 nM

**Q.** What about the EC50 [2] of the same compound?
**A.** > 10000 nM

**Q.** What does the source list for COc1ccc2c3c([nH]c2c1)C[C@@H]1CCCN1CC3 [Compound 17, (S)-9-methoxy-1,2,3,5,6,11,12,12a-octahydropyrrolo[1′,2′:1,2]azepino[4,5-b]indole]?
**A.** IC50 [1]: 1000 to 10000 nM; EC50 [2]: > 10000 nM

**Q.** For COc1ccc2c3c([nH]c2c1)C[C@H]1CCCN1CC3 [Compound 18, (R)-9-methoxy-1,2,3,5,6,11,12,12a-octahydropyrrolo[1′,2′:1,2]azepino[4,5-b]indole], which IC50 [1] is on record?
**A.** 1000 to 10000 nM

**Q.** And the EC50 [2]?
**A.** > 10000 nM

**Q.** With c1ccc2c3c([nH]c2c1)C[C@@H]1CCCN1CC3 [Compound 19, (S)-1,2,3,5,6,11,12,12a-octahydropyrrolo[1′,2′:1,2]azepino[4,5-b]indole] as the compound, how does the IC50 [1] read?
**A.** 101 to 1000 nM

**Q.** What about the EC50 [2] of the same compound?
**A.** 101 to 1000 nM

**Q.** With c1ccc2c3c([nH]c2c1)C[C@H]1CCCN1CC3 [Compound 20, (R)-1,2,3,5,6,11,12,12a-octahydropyrrolo[1′,2′:1,2]azepino[4,5-b]indole] as the compound, how does the IC50 [1] read?
**A.** 101 to 1000 nM

**Q.** And the EC50 [2]?
**A.** 10 to 100 nM

**Q.** FC(F)(F)c1cccc2[nH]c3c(c12)CCN1CCCC1C3 (stereo not drawn) [Compound 21, 7-(trifluoromethyl)-1,2,3,5,6,11,12,12a-octahydropyrrolo[1′,2′:1,2]azepino[4,5-b]indole] was tested. Which IC50 [1] did it give?
**A.** 101 to 1000 nM

**Q.** And the EC50 [2]?
**A.** 101 to 1000 nM

**Q.** How did the IC50 [1] turn out when c1ccc2c3c([nH]c2c1)CCN1CCC[C@@H]1C3 [Compound 22, (R)-1,2,3,5,6,7,12,12a-octahydropyrrolo[1′,2′:1,7]azepino[4,5-b]indole] was run?
**A.** 101 to 1000 nM

**Q.** And the EC50 [2]?
**A.** 101 to 1000 nM

**Q.** With c1ccc2c3c([nH]c2c1)CCN1CCC[C@H]1C3 [Compound 23, (S)-1,2,3,5,6,7,12,12a-octahydropyrrolo[1′,2′:1,7]azepino[4,5-b]indole] as the compound, how does the IC50 [1] read?
**A.** 101 to 1000 nM

**Q.** What about the EC50 [2] of the same compound?
**A.** 101 to 1000 nM

**Q.** How did the IC50 [1] turn out when COc1ccc2c3c([nH]c2c1)CCN1CCC[C@@H]1C3 [Compound 24, (R)-9-methoxy-1,2,3,5,6,7,12,12a-octahydropyrrolo[1′,2′:1,7]azepino[4,5-b]indole] was run?
**A.** 1000 to 10000 nM

**Q.** What about the EC50 [2] of the same compound?
**A.** 1000 to 10000 nM

**Q.** Which IC50 [1] does the source give for COc1ccc2c3c([nH]c2c1)CCN1CCC[C@H]1C3 [Compound 25, (S)-9-methoxy-1,2,3,5,6,7,12,12a-octahydropyrrolo[1′,2′:1,7]azepino[4,5-b]indole] here?
**A.** 1000 to 10000 nM

**Q.** What about the EC50 [2] of the same compound?
**A.** 1000 to 10000 nM

**Q.** Which results are given for COc1cccc2[nH]c3c(c12)C[C@H]1CCCN1CC3 [Compound 26, (R)-11-methoxy-1,2,3,5,6,7,12,12a-octahydropyrrolo[1′,2′:1,7]azepino[4,5-b]indole]?
**A.** IC50 [1]: 10 to 100 nM; EC50 [2]: 10 to 100 nM

**Q.** Which results are given for COc1cccc2[nH]c3c(c12)C[C@@H]1CCCN1CC3 [Compound 27, (S)-11-methoxy-1,2,3,5,6,7,12,12a-octahydropyrrolo[1′,2′:1,7]azepino[4,5-b]indole]?
**A.** IC50 [1]: 101 to 1000 nM; EC50 [2]: 101 to 1000 nM

**Q.** For FC(F)(F)c1cccc2[nH]c3c(c12)CC1CCCN1CC3 (stereo not drawn) [Compound 28, 11-(trifluoromethyl)-1,2,3,5,6,7,12,12a-octahydropyrrolo[1′,2′:1,7]azepino[4,5-b]indole], which IC50 [1] is on record?
**A.** 10 to 100 nM

**Q.** And the EC50 [2]?
**A.** 101 to 1000 nM
